Results published in patent US20240398779A1, “USE OF FACTOR B INHIBITORS FOR THE TREATMENT OF AGE-RELATED MACULAR DEGENERATION” (priority 2021, published 2024).

What was measured:
Bb = Bb level in MAD study; format: in vivo, human; conditions: all iptacopan cohorts
AP activity = experiment: Wieslab AP assay in MAD study; format: in vivo, human; conditions: for inhibition of AP activity (Wieslab AP assay): sustained over 14 days of dosing
[1] = Clinical phase 2 studies in PNH, IgAN, C3G; format: in vivo, human
[2] = 39-week dog toxicity study, safety margins for human exposure; conditions: 39-week dog study
[3] = First in human study in healthy volunteers, single ascending dose (SAD) and multiple ascending dose (MAD)

For `CCO[C@H]1CCN(Cc2c(OC)cc(C)c3[nH]ccc23)[C@H](c2ccc(C(=O)O)cc2)C1` [iptacopan], the “Bb level decrease from the baseline” value (Bb) was 30-40%, the “inhibition of AP activity (Wieslab AP assay)” value (AP activity; 100 mg b.i.d.) was ≥ 80% and the “inhibition of AP activity (Wieslab AP assay)” value (AP activity; 200 mg b.i.d.) was ≥ 80%. The “suppression of AP activity (Wieslab AP assay)” value (AP activity; MAD study, 10 to 200 mg b.i.d. for 2 weeks) was “dose dependent suppression of AP activity”, the response rate ([1]; 200 mg b.i.d., all tested indications (PNH, IgAN, C3G)) was “highest response rate” and the proteinuria ([1]; IgAN study Part 1, 200 mg b.i.d., over 90 days) was “reduce proteinuria”. For the same molecule, the “unbound systemic exposure (AUC-based) at 200 mg b.i.d. below lowest exposure with off-target testicular effects (LOAEL)” value [2] was 17.3 fold, the “deaths, SAEs, or AEs leading to study drug discontinuation” value ([3]; 102 healthy volunteers, SAD and MAD) was “No deaths, SAEs, or AEs leading to study drug discontinuation were observed” and the permeability ([3]; first in human studies) was “good permeability”. The solubility ([3]; first in human studies) was “high solubility”.
